In patent publication US11111251B2, “Positive allosteric modulators of the muscarinic acetylcholine receptor M1” (Vanderbilt University, priority 2016, dated 2021):
Read-outs that look alike come from different tables or passages of the source.

Target: T1, human mAChR M1 (Homo sapiens, UniProt P11229)
T1 sequence (P11229 1-460): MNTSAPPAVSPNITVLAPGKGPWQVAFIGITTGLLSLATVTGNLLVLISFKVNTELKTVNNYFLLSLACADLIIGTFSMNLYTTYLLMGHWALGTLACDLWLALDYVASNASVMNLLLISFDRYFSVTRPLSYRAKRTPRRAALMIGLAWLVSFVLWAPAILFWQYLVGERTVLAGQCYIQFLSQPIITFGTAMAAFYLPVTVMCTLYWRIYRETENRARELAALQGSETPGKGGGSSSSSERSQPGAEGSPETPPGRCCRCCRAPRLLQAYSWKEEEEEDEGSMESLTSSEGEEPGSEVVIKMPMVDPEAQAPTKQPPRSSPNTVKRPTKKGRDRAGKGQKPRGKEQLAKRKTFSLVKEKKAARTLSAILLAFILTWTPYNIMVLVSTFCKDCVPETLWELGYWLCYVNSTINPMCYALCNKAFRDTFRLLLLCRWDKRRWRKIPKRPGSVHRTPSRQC
Experiment: mAChR M1 cell-based functional assay: calcium mobilization, positive allosteric modulator mode (increase in EC20 acetylcholine response)
Details: for Emax: read-out: Human M1 Emax (%)
In short: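 Calcium-flux assay in CHO-K1 cells stably expressing human M1, loaded with Fluo-4 AM (50 min, 37 °C) and read at 1 Hz. Compound (11-point, 1:3 series) was added at 4 s, EC20 acetylcholine at 144 s and EC80 at 230 s. PAM activity is the concentration-dependent rise in the EC20 response, fitted with a four-parameter logistic.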

[1] = Table 2, human M1, read-out: Human M1 EC50
[2] = Table 1, mAChR M1 cell-based functional assay, PAM mode, species not given, read-out: EC50

| SMILES | EC50 [1] | Emax (Table 2, human M1) | EC50 [2] |
| --- | --- | --- | --- |
| Cc1ccc(Oc2cc(C(=O)NC3CCCCNC3=O)nc3ccsc23)cn1 (centres unmarked) [Compound 36, 7-[(6-methyl-3-pyridyl)oxy]-N-(2-oxoazepan-3-yl)thieno[3,2-b]pyridine-5-carboxamide] | – | – | > 10000 nM |
| O=C(NCC1CCCO1)c1cc(Cc2ccc(-c3nccs3)cc2)c2sccc2n1 (centres unmarked) [Compound 384, N-(tetrahydrofuran-2-ylmethyl)-7-[(4-thiazol-2-ylphenyl)methyl]thieno[3,2-b]pyridine-5-carboxamide] | 1370 nM | 65.2% | – |
| O=C(c1cc(Cc2ccc(-n3cccn3)cc2)c2sccc2n1)N1CC2CC1CO2 (centres unmarked) [Compound 445, 2-oxa-5-azabicyclo[2.2.1]heptan-5-yl-[7-[(4-pyrazol-1-ylphenyl)methyl]thieno[3,2-b]pyridin-5-yl]methanone] | > 10000 nM | 50.7% | – |
| O=C(NC1CCC1)c1cc(Cc2ccc(-n3cccn3)cc2)c2sccc2n1 [Compound 436, N-cyclobutyl-7-[(4-pyrazol-1-ylphenyl)methyl]thieno[3,2-b]pyridine-5-carboxamide] | 1500 nM | 69.1% | – |
| Cn1cc(-c2ccc(Cc3cc(C(=O)NC4CCCOC4)nc4ccsc34)cc2)nn1 (centres unmarked) [Compound 152, 7-[[4-(1-methyltriazol-4-yl)phenyl]methyl]-N-tetrahydropyran-3-yl-thieno[3,2-b]pyridine-5-carboxamide] | 272 nM | 92.3% | – |
| Cc1ncc(Cc2cc(C(=O)N[C@@H]3CCC[C@H]3O)nc3ccsc23)s1 [Compound 133, N-[(1R,2R)-2-hydroxycyclopentyl]-7-[(2-methylthiazol-5-yl)methyl]thieno[3,2-b]pyridine-5-carboxamide] | 3620 nM | 77.9% | – |
| Cc1ccc(Oc2cc(C(=O)NCC(C)(C)O)nc3ccsc23)cn1 [Compound 32, N-(2-hydroxy-2-methyl-propyl)-7-[(6-methyl-3-pyridyl)oxy]thieno[3,2-b]pyridine-5-carboxamide] | – | – | > 10000 nM |
| Cc1ccc(Cc2cc(C(=O)N[C@H]3CCC[C@@H]3O)nc3ccsc23)cn1 [Compound 42, N-[(1S,2S)-2-hydroxycyclopentyl]-7-[(6-methyl-3-pyridyl)methyl]thieno[3,2-b]pyridine-5-carboxamide] | – | – | 360 nM |
| Cc1ncc(Cc2cc(C(=O)N[C@@H]3CCCCC[C@H]3O)nc3ccsc23)cn1 [Compound 131, N-[(1R,2R)-2-hydroxycycloheptyl]-7-[(2-methylpyrimidin-5-yl)methyl]thieno[3,2-b]pyridine-5-carboxamide] | 4650 nM | 83.4% | – |
| O=C(N[C@H]1CCOC[C@@H]1O)c1cc(Cc2ccc(-c3nccs3)cc2)c2sccc2n1 [Compound 294] | 15.7 nM | 71.1% | – |
| Cc1ccc(Cc2cc(C(=O)N[C@@H]3CC[C@H]3O)nc3ccsc23)cn1 [Compound 44] | – | – | 3770 nM |
| COCC(C)NC(=O)c1cc(Cc2ccc(-c3cnn(C)c3)nc2)c2sccc2n1 (centres unmarked) [Compound 363, N-(2-methoxy-1-methyl-ethyl)-7-[[6-(1-methylpyrazol-4-yl)-3-pyridyl]methyl]thieno[3,2-b]pyridine-5-carboxamide] | 321 nM | 85.2% | – |
| Cc1csc2c(Cc3ccc(-n4cccn4)cc3)cc(C(=O)N[C@@H]3COCC[C@H]3O)nc12 [Compound 118] | 134 nM | 83.7% | – |
| Cn1ccc(-c2ccc(Cc3cc(C(=O)N[C@H]4CCC[C@@H]4O)nc4ccsc34)cn2)n1 [Compound 352, N-[(1S,2S)-2-hydroxycyclopentyl]-7-[[6-(1-methylpyrazol-3-yl)-3-pyridyl]methyl]thieno[3,2-b]pyridine-5-carboxamide] | 32.7 nM | 90.7% | – |
| Cn1ccc2nc(C(=O)NC3CC(F)C3)cc(Cc3ccc(-c4nccs4)cc3)c21 (centres unmarked) [Compound 488, N-(3-fluorocyclobutyl)-1-methyl-7-[(4-thiazol-2-ylphenyl)methyl]pyrrolo[3,2-b]pyridine-5-carboxamide] | 1150 nM | 37.5% | – |
| Cc1nc(-c2ccc(Cc3cc(C(=O)N[C@H]4CCCCC[C@@H]4O)nc4ccsc34)cc2)cs1 [Compound 196, N-[(1S,2S)-2-hydroxycycloheptyl]-7-[[4-(2-methylthiazol-4-yl)phenyl]methyl]thieno[3,2-b]pyridine-5-carboxamide] | 234 nM | 81.3% | – |
| Cc1ccc(Cc2cc(C(=O)N[C@@H]3CCOC[C@H]3O)nc3c(C)csc23)cn1 [Compound 104] | 164 nM | 86.8% | – |

Second part, the compound after the results:

| EC50 [1] | Emax (Table 2, human M1) | EC50 [2] | SMILES |
| --- | --- | --- | --- |
| > 10000 nM | 17.9% | – | Cc1nn(C)c(C)c1-c1ccc(Cc2cc(C(=O)NC3CCOCC3)nc3ccsc23)cc1 [Compound 243, N-tetrahydropyran-4-yl-7-[[4-(1,3,5-trimethylpyrazol-4-yl)phenyl]methyl]thieno[3,2-b]pyridine-5-carboxamide] |
| 689 nM | 76.8% | – | Cc1csc2c(Cc3ccc(-n4cccn4)cc3)cc(C(=O)NC[C@@H]3CCCO3)nc12 [Compound 323, 3-methyl-7-[(4-pyrazol-1-ylphenyl)methyl]-N-[[(2S)-tetrahydrofuran-2-yl]methyl]thieno[3,2-b]pyridine-5-carboxamide] |
| 129 nM | 73.4% | – | Cn1ccc2nc(C(=O)N[C@H]3CCC[C@@H]3O)cc(Cc3ccc(-c4cscn4)cc3)c21 [Compound 458, N-[(1S,2S)-2-hydroxycyclopentyl]-1-methyl-7-[(4-thiazol-4-ylphenyl)methyl]pyrrolo[3,2-b]pyridine-5-carboxamide] |
| 201 nM | 70% | – | O=C(NC1CCCC1=O)c1cc(Cc2ccc(-n3cccn3)cc2)c2sccc2n1 (centres unmarked) [Compound 437, N-(2-oxocyclopentyl)-7-[(4-pyrazol-1-ylphenyl)methyl]thieno[3,2-b]pyridine-5-carboxamide] |
| 263 nM | 71% | – | CC1COCCC1NC(=O)c1cc(Cc2ccc(-n3cccn3)cc2)c2sccc2n1 (centres unmarked) [Compound 444, N-(3-methyltetrahydropyran-4-yl)-7-[(4-pyrazol-1-ylphenyl)methyl]thieno[3,2-b]pyridine-5-carboxamide] |
| > 10000 nM | 65.7% | – | Cn1ncc2nc(C(=O)N[C@@H]3CC[C@H]3O)cc(Cc3ccc(-n4cccn4)cc3)c21 [Compound 496, N-[(1R,2R)-2-hydroxycyclobutyl]-1-methyl-7-[(4-pyrazol-1-ylphenyl)methyl]pyrazolo-[4,3-b]pyridine-5-carboxamide] |
| > 10000 nM | 71.9% | – | O=C(NC1CC(F)C1)c1cc(Cc2ccc(-c3nccs3)cc2)c2sccc2n1 (centres unmarked) [Compound 367, N-(3-fluorocyclobutyl)-7-[(4-thiazol-2-ylphenyl)methyl]thieno[3,2-b]pyridine-5-carboxamide] |
| 200 nM | 86.4% | – | Cn1ccc(-c2ccc(Cc3cc(C(=O)NC4CCOCC4(C)C)nc4ccn(C)c34)cc2)n1 (centres unmarked) [Compound 477, N-(3,3-dimethyltetrahydropyran-4-yl)-1-methyl-7-[[4-(1-methylpyrazol-3-yl)phenyl]methyl]pyrrolo[3,2-b]pyridine-5-carboxamide] |
| 1480 nM | 66.6% | – | CN1CCC(NC(=O)c2cc(Cc3ccc(-n4cccn4)cc3)c3sccc3n2)CC1 [Compound 443, N-(1-methyl-4-piperidyl)-7-[(4-pyrazol-1-ylphenyl)methyl]thieno[3,2-b]pyridine-5-carboxamide] |
| 80.1 nM | 87.9% | – | Cc1ccc(C(F)c2cc(C(=O)N[C@@H]3CCCC[C@H]3O)nc3ccsc23)cn1 (stereo partly drawn) [Compound 85, 7-[fluoro-(6-methyl-3-pyridyl)methyl]-N-[(1R,2R)-2-hydroxycyclohexyl]thieno[3,2-b]pyridine-5-carboxamide] |
| 355 nM | 86.6% | – | Cn1ccc(-c2ccc(Cc3cc(C(=O)NCC4CCO4)nc4ccsc34)cn2)n1 (centres unmarked) [Compound 355, 7-[[6-(1-methylpyrazol-3-yl)-3-pyridyl]methyl]-N-(oxetan-2-ylmethyl)thieno[3,2-b]pyridine-5-carboxamide] |
| 109 nM | 65.5% | – | Cc1csc2c(Cc3ccc(-c4ccn(C)n4)cc3)cc(C(=O)N[C@H]3CCCC[C@@H]3O)nc12 [Compound 312, N-[(1S,2S)-2-hydroxycyclohexyl]-3-methyl-7-[[4-(1-methylpyrazol-3-yl)phenyl]methyl]thieno[3,2-b]pyridine-5-carboxamide] |
| 5130 nM | 67% | – | Cn1ccc(-c2ccc(Cc3cc(C(=O)N[C@@H]4CCOC4)nc4ccsc34)cn2)n1 [Compound 418, 7-[[6-(1-methylpyrazol-3-yl)-3-pyridyl]methyl]-N-[(3R)-tetrahydrofuran-3-yl]thieno[3,2-b]pyridine-5-carboxamide] |
| – | – | 1140 nM | Cc1ccc(Oc2cc(C(=O)N[C@H]3CCCC[C@@H]3O)nc3ccsc23)cn1 [Compound 21, N-[(1S,2S)-2-hydroxycyclohexyl]-7-[(6-methyl-3-pyridyl)oxy]thieno[3,2-b]pyridine-5-carboxamide] |
| 499 nM | 82.2% | – | Cn1cc(-c2ccc(Cc3cc(C(=O)N[C@H]4CCCOC4)nc4ccsc34)cn2)cn1 [Compound 347, 7-[[6-(1-methylpyrazol-4-yl)-3-pyridyl]methyl]-N-[(3S)-tetrahydropyran-3-yl]thieno[3,2-b]pyridine-5-carboxamide] |
